Molecules are shown by their SMILES. pIC50: −log10 of the molar value.

Test [1] concerns the target Apoptosis regulator Bcl-2 (Homo sapiens, UniProt P10415). In words: Displacement of Bax-derived peptide from Bcl-2 (unknown origin) by fluorescence polarization assay.
The target of test [2] is Bcl-2-like protein 1 (Homo sapiens, UniProt Q07817). Nature of the test: Displacement of Bad-derived peptide from Bcl-XL (unknown origin) by fluorescence polarization assay. (Polarisation of emitted light reports the rotation of a fluorescent probe.)
The species entered for test [3] is Homo sapiens. Nature of the test: Selectivity factor, ratio of IC50 for Bad-derived peptide from Bcl-XL (unknown origin) to IC50 for displacement of Bax-derived peptide from Bcl-2 (unknown origin).

Bcl-2-like protein 1, sequence (Q07817 whole entry): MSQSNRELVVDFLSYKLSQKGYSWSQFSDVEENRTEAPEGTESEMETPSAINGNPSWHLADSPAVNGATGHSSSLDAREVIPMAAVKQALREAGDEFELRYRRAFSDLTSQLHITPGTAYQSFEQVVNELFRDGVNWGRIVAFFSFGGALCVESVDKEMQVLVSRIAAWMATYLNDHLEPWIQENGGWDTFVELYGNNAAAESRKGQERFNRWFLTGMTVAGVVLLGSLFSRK
Apoptosis regulator Bcl-2, sequence (P10415 whole entry): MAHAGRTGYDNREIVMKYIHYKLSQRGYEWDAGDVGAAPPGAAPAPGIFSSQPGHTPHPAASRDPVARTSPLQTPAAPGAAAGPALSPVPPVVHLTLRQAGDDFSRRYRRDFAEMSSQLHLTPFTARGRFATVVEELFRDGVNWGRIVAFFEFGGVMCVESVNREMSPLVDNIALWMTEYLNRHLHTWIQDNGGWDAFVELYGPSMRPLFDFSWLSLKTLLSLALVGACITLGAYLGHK

On to `CC1(C)CCC(c2ccc(Cl)cc2)=C(CN2CCc3ccc(C(=O)NS(=O)(=O)c4ccc(N[C@H](CCN5CCOCC5)CSc5ccccc5)c(S(=O)(=O)C(F)(F)F)c4)cc3CC2)C1`, for which the pIC50 was 6.71 in test [1] and 7.59 in test [2]. Also, in test [3], the Ratio IC50 was found to be 0.13.

Take `CC1(C)CCC(c2ccc(Cl)cc2)=C(CN2CCc3cc(C(=O)NS(=O)(=O)c4ccc(N[C@H](CCN5CCOCC5)CSc5ccccc5)c(S(=O)(=O)C(F)(F)F)c4)ccc3C2)C1`: the pIC50 is 7.90 in test [1] and 7.84 in test [2]. Besides, in test [3], the Ratio IC50 was determined as 1.15.

Consider `CC1(C)CCC(c2ccc(Cl)cc2)=C(CN2CCN(c3ccc(C(=O)NS(=O)(=O)c4ccc(N[C@@H](CC5CC5)CN5CCOCC5)c(S(=O)(=O)C(F)(F)F)c4)cc3)CC2)C1`, for which the pIC50 in test [1] is 7.68; in test [2], 7.47. In addition, in test [3], the Ratio IC50 turned out to be 1.62.

As to `CC1(C)CCC(c2ccc(Cl)cc2)=C(CN2CCN(c3ccc(C(=O)NS(C)(=O)=O)cc3)CC2)C1`, the pIC50 was 6.31 in test [1] and under 6.00 in test [2]. Moreover, the Ratio IC50 in test [3] was over 2.02.

`CN1CCN(S(=O)(=O)NC(=O)c2ccc(N3CCN(CC4=C(c5ccc(Cl)cc5)CCC(C)(C)C4)CC3)cc2)CC1`: the pIC50 in test [1] is 6.77; in test [2] it was under 6.00. For the same molecule, the Ratio IC50 in test [3] was over 5.93.

Turning to `Cn1ccc(S(=O)(=O)NC(=O)c2ccc(N3CCN(CC4=C(c5ccc(Cl)cc5)CCC(C)(C)C4)CC3)cc2)n1`, the pIC50 in test [1] is 7.17; in test [2] it was under 6.00. Further, the Ratio IC50 in test [3] was over 14.8.

For the molecule `CC1(C)CCC(c2ccc(Cl)cc2)=C(CN2CCN(c3ccc(C(=O)NS(=O)(=O)c4ccc(N5CC(F)(F)C5)c(S(=O)(=O)C(F)(F)F)c4)cc3)CC2)C1`, the figures for the pIC50 in test [1] and in test [2] were 7.33 and 6.79, respectively. The Ratio IC50 in test [3] was 3.48.

On to `CC1(C)CCC(c2ccc(Cl)cc2)=C(CN2CCN(c3ccc(C(=O)NS(=O)(=O)c4ccc(N[C@@H](CC5CC5)C(=O)N5CCOCC5)c(S(=O)(=O)C(F)(F)F)c4)cc3)CC2)C1`, for which the figures for the pIC50 in test [1] and in test [2] were 7.17 and 7.23, respectively. Besides, the Ratio IC50 in test [3] amounted to 0.87.

As to `CC1(C)CCC(c2ccc(Cl)cc2)=C(CN2CCN(c3ccc(C(=O)NS(=O)(=O)c4ccc(OCC5(CN6CCOCC6)COC5)c(S(=O)(=O)C(F)(F)F)c4)cc3)CC2)C1`, the pIC50 was 7.84 in test [1] and 7.31 in test [2]. Besides, the Ratio IC50 in test [3] worked out at 3.4.

With `CC1(C)CCC(c2ccc(Cl)cc2)=C(CN2CCc3nc(C(=O)NS(=O)(=O)c4ccc(N[C@H](CCN5CCOCC5)CSc5ccccc5)c(S(=O)(=O)C(F)(F)F)c4)sc3C2)C1`, the pIC50 in test [1] is 7.42; in test [2] it was 7.88. For the same molecule, the Ratio IC50 in test [3] stood at 0.35.

Consider `CN(CCO)c1ccc(S(=O)(=O)NC(=O)c2ccc(N3CCN(CC4=C(c5ccc(Cl)cc5)CCC(C)(C)C4)CC3)cc2)cc1S(=O)(=O)C(F)(F)F`, for which the pIC50 in test [1] was 7.34; in test [2] it was 6.94. The Ratio IC50 in test [3] worked out at 2.53.

Consider `CC1(C)CCC(c2ccc(Cl)cc2)=C(CN2CCN(c3ccc(C(=O)NS(=O)(=O)c4ccc(NC5(CN6CC(F)(F)C6)CC5)c(S(=O)(=O)C(F)(F)F)c4)cc3)CC2)C1`, for which the pIC50 in test [1] is 7.46; in test [2], 6.47. In addition, in test [3], the Ratio IC50 is 9.83.

Take `CC1(C)CCC(c2ccc(Cl)cc2)=C(CN2CCN(c3ccc(C(=O)NS(=O)(=O)c4ccc(OCC5(CN6CC(F)(F)C6)COC5)c(S(=O)(=O)C(F)(F)F)c4)cc3)CC2)C1`: the values for the pIC50 in test [1] and in test [2] were 7.76 and 6.98, respectively. For the same molecule, in test [3], the Ratio IC50 was found to be 6.06.

On to `CC1(C)CCC(c2ccc(Cl)cc2)=C(CN2CCc3sc(C(=O)NS(=O)(=O)c4ccc(N[C@H](CCN5CCOCC5)CSc5ccccc5)c(S(=O)(=O)C(F)(F)F)c4)cc3C2)C1`, for which the pIC50 is 7.24 in test [1] and 7.58 in test [2]. Moreover, in test [3], the Ratio IC50 came out at 0.46.

Turning to `CC1(C)CCC(c2ccc(Cl)cc2)=C(CNC2(Cn3cnc4ccc(C(=O)NS(=O)(=O)c5ccc(N[C@H](CCN6CCOCC6)CSc6ccccc6)c(S(=O)(=O)C(F)(F)F)c5)cc43)CC2)C1`, the pIC50 in test [1] and in test [2] was under 6.00 throughout.

As to `CC1(C)CCC(c2ccc(Cl)cc2)=C(CN2CCN(c3ccc(C(=O)NS(=O)(=O)c4ccc(NC5(CN6CCOCC6)CC5)c(S(=O)(=O)C(F)(F)F)c4)cc3)CC2)C1`, the pIC50 is 7.39 in test [1] and 7.26 in test [2]. For the same molecule, the Ratio IC50 in test [3] stood at 1.36.

For the molecule `CN(C)c1ccc(S(=O)(=O)NC(=O)c2ccc(N3CCN(CC4=C(c5ccc(Cl)cc5)CCC(C)(C)C4)CC3)cc2)cc1S(=O)(=O)C(F)(F)F`, the pIC50 is 7.19 in test [1] and 6.66 in test [2]. Moreover, the Ratio IC50 in test [3] is 3.34.

Turning to `CC1(C)CCC(c2ccc(Cl)cc2)=C(CNC2(Cn3cnc4cc(C(=O)NS(=O)(=O)c5ccc(N[C@H](CCN6CCOCC6)CSc6ccccc6)c(S(=O)(=O)C(F)(F)F)c5)ccc43)CC2)C1`, the pIC50 in test [1] was 6.97; in test [2] it was 7.53. For the same molecule, the Ratio IC50 in test [3] is 0.27.

As usually defined, the pIC50 is the IC50 on a negative log10 scale, so that one unit is a factor of ten. A low value points to a high IC50.

The record behind these values is ChEMBL document CHEMBL4177735, “Design, synthesis and pharmacological evaluation of new acyl sulfonamides as potent and selective Bcl-2 inhibitors” (Bioorg Med Chem, 2018).
